Results taken from US9663513B2, “Pyrimidine PDE10 inhibitors” (Merck Sharp & Dohme Corp., priority 2012, dated 2017).

Target: human PDE10A2 (Homo sapiens (Human), UniProt Q9Y233)
Experiment: PDE10 fluorescence polarization (IMAP FP) inhibition assay
Type: biochemical
Conditions: human PDE10A2 from transfected AD293 cells; FAM-labeled cAMP 50 nM; apparent inhibition constant; read-out: PDE10A Ki
Procedure, shortened: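 Cytoplasmic lysate of AD293 cells transiently expressing human PDE10A2 (enzyme level giving 20% conversion) incubated with 50 nM FAM-cAMP in pH 7.2 Tris/MgCl2 buffer, 30 min at room temperature. IMAP binding solution added, FP read after ≥1 h; 10-point 3-fold compound titrations fitted to a four-parameter equation.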

Sequence of human PDE10A2 (Q9Y233 267-1055): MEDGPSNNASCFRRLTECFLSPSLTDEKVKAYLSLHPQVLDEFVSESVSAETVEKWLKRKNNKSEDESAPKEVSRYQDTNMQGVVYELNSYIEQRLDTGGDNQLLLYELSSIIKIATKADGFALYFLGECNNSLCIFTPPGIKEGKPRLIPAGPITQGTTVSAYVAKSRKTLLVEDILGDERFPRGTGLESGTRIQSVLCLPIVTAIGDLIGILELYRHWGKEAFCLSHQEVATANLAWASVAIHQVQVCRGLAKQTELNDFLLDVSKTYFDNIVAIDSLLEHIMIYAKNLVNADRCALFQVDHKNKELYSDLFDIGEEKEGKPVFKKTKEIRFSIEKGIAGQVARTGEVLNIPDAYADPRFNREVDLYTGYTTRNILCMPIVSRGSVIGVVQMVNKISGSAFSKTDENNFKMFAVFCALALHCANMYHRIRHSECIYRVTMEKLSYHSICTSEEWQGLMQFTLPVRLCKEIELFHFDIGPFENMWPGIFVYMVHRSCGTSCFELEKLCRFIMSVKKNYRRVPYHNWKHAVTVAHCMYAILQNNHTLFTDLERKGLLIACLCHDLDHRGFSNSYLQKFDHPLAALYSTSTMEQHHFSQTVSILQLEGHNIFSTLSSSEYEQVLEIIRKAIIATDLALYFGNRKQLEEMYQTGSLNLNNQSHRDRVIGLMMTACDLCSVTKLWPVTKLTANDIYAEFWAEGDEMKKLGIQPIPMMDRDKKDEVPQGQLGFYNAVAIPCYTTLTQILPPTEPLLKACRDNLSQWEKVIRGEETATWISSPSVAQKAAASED

| SMILES | Ki |
| --- | --- |
| COc1ccc([C@H]2C[C@@H]2COc2nc(C)ncc2-c2ccc(C)nn2)nc1 [Example 102, 3-(4-(((1S,2S)-2-(5-methoxypyridin-2-yl)cyclopropyl)methoxy)-2-methylpyrimidin-5-yl)-6-methylpyridazine] | 10.3 nM |
| COc1ccc([C@H]2C[C@@H]2COc2nc(C)ncc2-c2ccc(-c3nc(CCl)no3)cc2)nc1 [Example 94, 3-(chloromethyl)-5-(4-(4-(((1S,2S)-2-(5-methoxypyridin-2-yl)cyclopropyl)methoxy)-2-methylpyrimidin-5-yl)phenyl)-1,2,4-oxadiazole] | 1.17 nM |
| Cc1ccc([C@H]2C[C@@H]2COc2nc(C)ncc2-c2ccnc(F)c2)nc1 [Example 19, 5-(2-fluoropyridin-4-yl)-2-methyl-4-(((1S,2S)-2-(5-methylpyridin-2-yl)cyclopropyl)methoxy)pyrimidine] | 0.55 nM |
| Cc1ccc([C@H]2C[C@@H]2COc2nc(C)ncc2-c2cccc(OC(F)(F)F)c2)nc1 [Example 12, 2-methyl-4-(((1S,2S)-2-(5-methylpyridin-2-yl)cyclopropyl)methoxy)-5-(3-(trifluoromethoxy)phenyl)pyrimidine] | 1.11 nM |
| Cc1ncc(-c2ccc(C(C)(C)O)nc2)c(OC[C@H]2C[C@@H]2c2ccc3ccccc3n2)n1 [Example 157, 2-(5-(2-methyl-4-(((1S,2S)-2-(quinolin-2-yl)cyclopropyl)methoxy)pyrimidin-5-yl)pyridin-2-yl)propan-2-ol] | 0.02 nM |
| CCn1nnc(-c2ccc(-c3cnc(C)nc3OC[C@H]3C[C@@H]3c3ccc(OC)cn3)cc2)n1 [Example 225, 5-(4-(2-ethyl-2H-tetrazol-5-yl)phenyl)-4-(((1S,2S)-2-(5-methoxypyridin-2-yl)cyclopropyl)methoxy)-2-methylpyrimidine] | 1.42 nM |
| Cc1ccnc([C@H]2C[C@@H]2COc2nc(C)ncc2-c2ccc(C(C)(C)O)nc2)c1 (single isomer, unassigned) [Example 177] | 0.38 nM |
| Cc1ncc(-c2ccc(C(C)(C)O)nc2)c(OC[C@H]2C[C@@H]2c2ccc(C#N)cn2)n1 [Example 182, 6-((1S,2S)-2-((5-(6-(2-hydroxypropan-2-yl)pyridin-3-yl)-2-methylpyrimidin-4-yloxy)methyl)cyclopropyl)nicotinonitrile] | 17.8 nM |
| Cc1ccc([C@H]2C[C@@H]2COc2nc(C)ncc2C2CCC(=O)CC2)nc1 [Example 185, 4-(2-methyl-4-(((1S,2S)-2-(5-methylpyridin-2-yl)cyclopropyl)methoxy)pyrimidin-5-yl)cyclohexanone] | 3.73 nM |
| Cc1ncc(-c2ccc(C(C)(C)O)nc2)c(OC[C@H]2C[C@@H]2c2ncccc2C)n1 (single isomer, unassigned) [Example 173] | 0.51 nM |
| CCOC(=O)c1cnc(O)cc1-c1cnc(C)nc1OC[C@H]1C[C@@H]1c1ccc(OC)cn1 [Example 110, ethyl 6-hydroxy-4-(4-(((1S,2S)-2-(5-methoxypyridin-2-yl)cyclopropyl)methoxy)-2-methylpyrimidin-5-yl)nicotinate] | 41.6 nM |
| Cc1cccc([C@H]2C[C@@H]2COc2nc(C)ncc2C2CCC(=O)CC2)n1 [Example 187, 4-(2-methyl-4-(((1S,2S)-2-(6-methylpyridin-2-yl)cyclopropyl)methoxy)pyrimidin-5-yl)cyclohexanone] | 18.6 nM |
| COc1ccc([C@H]2C[C@@H]2COc2nc(C)ncc2-c2cnc(C(C)(C)O)cn2)nc1 [Example 66, 2-(5-(4-(((1S,2S)-2-(5-methoxypyridin-2-yl)cyclopropyl)methoxy)-2-methylpyrimidin-5-yl)pyrazin-2-yl)propan-2-ol] | 3.14 nM |
| Cc1ccnc([C@H]2C[C@@H]2COc2nc(C)ncc2-c2ccc(C(C)(C)O)nc2)c1 (single isomer, unassigned) [Example 178] | 35.6 nM |
| Cc1ncc(-c2cnc(C(C)(C)O)cc2C)c(OC[C@H]2C[C@@H]2c2ccccn2)n1 [Example 118, 2-(4-methyl-5-(2-methyl-4-(((1S,2S)-2-(pyridin-2-yl)cyclopropyl)methoxy)pyrimidin-5-yl)pyridin-2-yl)propan-2-ol] | 0.1 nM |
| COc1ccc([C@H]2C[C@@H]2COc2nc(C)ncc2-c2cc(Cl)ncc2C(F)(F)F)nc1 [Example 88, 5-(2-chloro-5-(trifluoromethyl)pyridin-4-yl)-4-(((1S,2S)-2-(5-methoxypyridin-2-yl)cyclopropyl)methoxy)-2-methylpyrimidine] | 0.99 nM |
